Data published in patent publication US11497212B2, “Substituted thiophenyl uracils, salts thereof and the use thereof as herbicidal agents” (Syngenta Crop Protection AG, priority 2017, dated 2022).

Assays:
Format in all cases: in vivo
Abutilon theophrasti = test: Herbicidal action post-emergence (greenhouse pot trial); settings: application rate 20 g/ha, scored visually after about 3 weeks vs untreated controls
Experimental: (§1) Seeds of mono- and dicotyledonous weed plants and crop plants are laid out in sandy loam soil in plastic or wood-fiber pots, covered with earth and grown under controlled growth conditions in a greenhouse. 2 to 3 weeks after sowing, the trial plants are treated at the one-leaf stage. The compounds of the invention formulated in the form of wettable powders (WP) or emulsion concentrates (EC) were then sprayed onto the green parts of the plant as an aqueous suspension or emulsion with addition of 0.5% additive at a water application rate equivalent to 600 L/ha. After the trial plants had stood for about 3 weeks in the greenhouse, under optimal growth conditions, the effect of the preparations was scored visually by comparison with untreated controls. For example, 100% efficacy=plants have died, 0% efficacy=like control plants. Tables A1 to A15 below show the efficacies of selected compounds of the general formula (I) according to tables I.1 to I.60 on various harmful plants and an application rate corresponding to 80 g/ha or lower that were obtained by the aforementioned trial method.

Amaranthus retroflexus = test: as above; settings: application rate 20 g/ha, scored visually after about 3 weeks vs untreated controls
Experimental: as §1

Digitaria sanguinalis = test: as above; settings: application rate 20 g/ha
Experimental: as §1

Echinochloa crus-galli = test: as above; settings: application rate 20 g/ha, scored visually after about 3 weeks vs untreated controls
Experimental: as §1

Matricaria inodora = test: as above; settings: application rate 20 g/ha, scored visually after about 3 weeks vs untreated controls
Experimental: as §1

Pharbitis purpurea = test: as above; settings: application rate 20 g/ha
Experimental: as §1

Polygonum convolvulus = test: as above; settings: application rate 20 g/ha, scored visually after about 3 weeks vs untreated controls
Experimental: as §1

Setaria viridis = test: as above; settings: application rate 20 g/ha, scored visually after about 3 weeks vs untreated controls
Experimental: as §1

Stellaria media = test: as above; settings: application rate 20 g/ha, scored visually after about 3 weeks vs untreated controls
Experimental: as §1

Veronica persica = test: as above; settings: application rate 20 g/ha
Experimental: as §1

Viola tricolor = test: as above; settings: application rate 20 g/ha
Experimental: as §1

Oryza sativa = test: Crop compatibility post-emergence (greenhouse pot trial)
Experimental: as §1, with “plants.” for “plants. Tables A1 to A15 below show the efficacies of selected compounds of the general formula (I) according to tables I.1 to I.60 on various harmful plants and an application rate corresponding to 80 g/ha or lower that were obtained by the aforementioned trial method.”
(§2) Crop plant compatibilities were also scored correspondingly.
(§3) The effects observed are reported here on selected crop plants by comparison with the untreated controls (values in %).

Triticum aestivum = test: as above
Experimental: as §1, with “plants.” for “plants. Tables A1 to A15 below show the efficacies of selected compounds of the general formula (I) according to tables I.1 to I.60 on various harmful plants and an application rate corresponding to 80 g/ha or lower that were obtained by the aforementioned trial method.”
as §2, §3

Zea mays = test: as above
Experimental: as §1, with “plants.” for “plants. Tables A1 to A15 below show the efficacies of selected compounds of the general formula (I) according to tables I.1 to I.60 on various harmful plants and an application rate corresponding to 80 g/ha or lower that were obtained by the aforementioned trial method.”
as §2, §3

| Compound | Abutilon theophrasti (Efficacy in %) (Abutilon theophrasti) | Amaranthus retroflexus (Efficacy in %) (Amaranthus retroflexus) | Digitaria sanguinalis (Efficacy in %) (Digitaria sanguinalis) | Echinochloa crus-galli (Efficacy in %) (Echinochloa crus-galli) | Matricaria inodora (Efficacy in %) (Matricaria inodora) | Pharbitis purpurea (Efficacy in %) (Pharbitis purpurea) | Polygonum convolvulus (Efficacy in %) (Polygonum convolvulus) | Setaria viridis (Efficacy in %) (Setaria viridis) | Stellaria media (Efficacy in %) (Stellaria media) | Veronica persica (Efficacy in %) (Veronica persica) | Viola tricolor (Efficacy in %) (Viola tricolor) | Oryza sativa (Efficacy in %) (Oryza sativa; application rate 5 g/ha) | Oryza sativa (Efficacy in %) (Oryza sativa; application rate 20 g/ha) | Triticum aestivum (Efficacy in %) (Triticum aestivum; application rate 20 g/ha) | Zea mays (Efficacy in %) (Zea mays; application rate 20 g/ha) | Triticum aestivum (Efficacy in %) (Triticum aestivum; application rate 5 g/ha) | Zea mays (Efficacy in %) (Zea mays; application rate 5 g/ha) | Zea mays (Efficacy in %) (Zea mays; application rate 80 g/ha) |
| --- | --- | --- | --- | --- | --- | --- | --- | --- | --- | --- | --- | --- | --- | --- | --- | --- | --- | --- |
| CC(Sc1cc(-n2c(=O)cc(C(F)(F)F)n(C)c2=O)c(F)cc1Cl)C(=O)OCCOCc1ccccc1 (stereo not drawn) [I.1-6] | 100% | 100% | 100% | 90% | 100% | 100% | 100% | 100% | 90% | 100% | 100% | 0% | – | – | – | – | – | – |
| CC(Sc1cc(-n2c(=O)cc(C(F)(F)F)n(C)c2=O)c(F)cc1Cl)C(=O)OCCCOCc1ccccc1 (stereo not drawn) [I.1-30] | 100% | 100% | 100% | 100% | 100% | 100% | 100% | 100% | 90% | 100% | 100% | – | 0% | 20% | – | – | – | – |
| CC(Sc1cc(-n2c(=O)cc(C(F)(F)F)n(C)c2=O)c(F)cc1Cl)C(=O)NCC1COC(C)(C)O1 (stereo not drawn) [I.1-334] | 100% | 100% | – | – | 100% | – | 90% | 90% | 90% | 100% | 100% | – | 10% | – | 20% | – | – | – |
| CCC(C)C(Sc1cc(-n2c(=O)cc(C(F)(F)F)n(C)c2=O)c(F)cc1Cl)C(=O)OCC1CCCO1 (stereo not drawn) [I.5-71] | 100% | 100% | 100% | 90% | 100% | 100% | 100% | 90% | 80% | 100% | 100% | – | – | 10% | – | – | – | – |
| CC(C)C(Sc1cc(-n2c(=O)cc(C(F)(F)F)n(C)c2=O)c(F)cc1Cl)C(=O)OCC1CCOC1 (stereo not drawn) [I.6-72] | 100% | 100% | 100% | 80% | 100% | 100% | 100% | 90% | 90% | 100% | 100% | – | – | – | – | 20% | – | – |
| CCC(Sc1cc(-n2c(=O)c(C)c(C(F)(F)F)n(C)c2=O)c(F)cc1Cl)C(=O)NCC1CCCO1 (stereo not drawn) [I.12-221] | 100% | 100% | – | – | 100% | – | 100% | – | 80% | 100% | 100% | – | 20% | 20% | – | – | 0% | – |
| CC(C)=C(Sc1cc(-n2c(=O)cc(C(F)(F)F)n(C)c2=O)c(F)cc1Cl)C(=O)OCC1CCOC1 (stereo not drawn) [I.42-72] | 100% | 100% | 100% | 90% | 100% | 100% | 100% | 100% | 90% | 100% | 100% | – | – | 20% | – | – | – | – |
| Cn1c(C(F)(F)F)cc(=O)n(-c2cc(SCC(C)(C)C(=O)OC3CCOCC3)c(Cl)cc2F)c1=O [I.48-127] | 100% | 100% | – | – | 90% | 90% | 90% | – | 100% | 100% | 100% | – | 0% | 10% | – | – | 20% | – |
| Cn1c(C(F)(F)F)cc(=O)n(-c2cc(SCC(C)(C)C(=O)NCC3CCCO3)c(Cl)cc2F)c1=O (stereo not drawn) [I.48-221] | 100% | 90% | – | – | 80% | – | – | – | 100% | 100% | 100% | – | 10% | – | – | – | – | 20% |
| Cc1c(C(F)(F)F)n(C)c(=O)n(-c2cc(SCC(C)(C)C(=O)OCC3CCCO3)c(Cl)cc2F)c1=O (stereo not drawn) [I.54-71] | 100% | 100% | 80% | 80% | – | 100% | 100% | 100% | 80% | 100% | 100% | 0% | – | – | – | 20% | – | – |
| Cc1c(C(F)(F)F)n(C)c(=O)n(-c2cc(SCC(C)(C)C(=O)OCC3CCSC3)c(Cl)cc2F)c1=O (stereo not drawn) [I.54-82] | 100% | 100% | – | – | – | – | – | – | – | 80% | 90% | – | 0% | – | – | 0% | 20% | – |
| Cc1c(C(F)(F)F)n(C)c(=O)n(-c2cc(SCC(C)(C)C(=O)NCC3CCCO3)c(Cl)cc2F)c1=O (stereo not drawn) [I.54-221] | 100% | 100% | – | – | 100% | 100% | 100% | – | 80% | 80% | – | – | 20% | 0% | 00% | – | – | – |
